Measured values: ChEMBL document CHEMBL1201862, “PubChem BioAssay data set” (2004)
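Cultured in 96-well plates, cells were exposed to test compound for 48 hours across five concentrations. GI50 = concentration required for 50% inhibition of growth.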 Activity calls are given as the source filed them. No stated cut-off is given here; in the data, active = GI50 up to about 1.1 µM and inactive = higher.

Assays:
Test in all cases: inhibition of tumour cell growth, NCI panel, 48 h
OVCAR-5 = system: OVCAR-5
MDA-MB-231 = system: MDA-MB-231
MOLT-4 = system: MOLT-4
HL-60 = system: HL-60
SK-OV-3 = system: SK-OV-3
SF-539 = system: SF-539
UACC-62 = system: UACC-62
ACHN = system: ACHN
EKVX = system: EKVX
OVCAR-8 = system: OVCAR-8
MDA-MB-435 = system: MDA-MB-435
SN12C = system: SN12C
HOP-62 = system: HOP-62
LOX IMVI = system: LOX IMVI
OVCAR-3 = system: OVCAR-3
NCI/ADR-RES = system: NCI/ADR-RES
DU-145 = system: DU-145
A549 = system: A549
SNB-19 = system: SNB-19
RPMI-8226 = system: RPMI-8226

Measured: GI50

OCc1ccn2c1[C@@H](O)CC2
inactive: OVCAR-5 > 100 µM | MDA-MB-231 > 100 µM | MOLT-4 > 100 µM | HL-60 > 100 µM | SK-OV-3 > 100 µM | SF-539 > 100 µM | UACC-62 > 100 µM | ACHN > 100 µM | EKVX > 100 µM | OVCAR-8 > 100 µM | MDA-MB-435 > 100 µM | SN12C > 100 µM | HOP-62 > 100 µM | LOX IMVI > 100 µM | OVCAR-3 > 100 µM | NCI/ADR-RES > 100 µM | DU-145 > 100 µM | A549 > 100 µM | SNB-19 > 100 µM | RPMI-8226 > 100 µM

COc1ccc(NC(=O)CC(=O)NN)cc1
inactive: OVCAR-5 > 100 µM | MDA-MB-231 > 100 µM | MOLT-4 > 100 µM | HL-60 > 100 µM | SK-OV-3 > 100 µM | SF-539 > 100 µM | UACC-62 > 100 µM | ACHN > 100 µM | EKVX > 100 µM | OVCAR-8 > 100 µM | MDA-MB-435 > 100 µM | SN12C > 100 µM | HOP-62 > 100 µM | LOX IMVI > 100 µM | OVCAR-3 > 100 µM | NCI/ADR-RES > 100 µM | DU-145 > 100 µM | A549 > 100 µM | SNB-19 > 100 µM | RPMI-8226 > 100 µM

O=C([O-])C[n+]1ccccc1.c1ccncc1
inactive: OVCAR-5 > 100 µM | MDA-MB-231 > 100 µM | MOLT-4 33.1 µM | HL-60 97.1 µM | SK-OV-3 > 100 µM | SF-539 > 100 µM | UACC-62 > 100 µM | ACHN > 100 µM | EKVX > 100 µM | OVCAR-8 > 100 µM | MDA-MB-435 > 100 µM | SN12C > 100 µM | HOP-62 > 100 µM | LOX IMVI > 100 µM | OVCAR-3 > 100 µM | NCI/ADR-RES > 100 µM | DU-145 > 100 µM | A549 > 100 µM | SNB-19 > 100 µM | RPMI-8226 > 100 µM

CN(C)CC1CCCc2ccccc2C1=O (stereo not given)
inactive: OVCAR-5 17.5 µM | MDA-MB-231 5.07 µM | HL-60 2.66 µM | SK-OV-3 18.3 µM | SF-539 4.79 µM | UACC-62 2.31 µM | ACHN 1.75 µM | EKVX 1.85 µM | OVCAR-8 2.13 µM | SN12C 7.4 µM | HOP-62 16.6 µM | LOX IMVI 2.16 µM | OVCAR-3 1.82 µM | NCI/ADR-RES 3.32 µM | DU-145 6.1 µM | A549 20.3 µM | SNB-19 13 µM
active: MOLT-4 0.269 µM | MDA-MB-435 0.897 µM | RPMI-8226 0.0267 µM

CC1(C)C=C(S(=O)(=O)c2ccccc2)Oc2ccccc2O1
inactive: OVCAR-5 > 100 µM | MDA-MB-231 > 100 µM | MOLT-4 25.2 µM | HL-60 20.5 µM | SK-OV-3 60.3 µM | SF-539 82.8 µM | UACC-62 38.4 µM | ACHN 34.8 µM | EKVX 23.1 µM | OVCAR-8 32.1 µM | MDA-MB-435 20.5 µM | SN12C 64.9 µM | HOP-62 > 100 µM | LOX IMVI 16.3 µM | OVCAR-3 50.4 µM | NCI/ADR-RES 52.1 µM | DU-145 91 µM | A549 41 µM | SNB-19 62.5 µM | RPMI-8226 32.9 µM

O=C(O)CCC1NC(/C(=C/c2ccccc2O)NC(=O)c2ccccc2)OC1=O (stereo not given)
inactive: OVCAR-5 > 100 µM | MDA-MB-231 46.9 µM | MOLT-4 > 100 µM | HL-60 > 100 µM | SK-OV-3 44.2 µM | SF-539 95.3 µM | UACC-62 > 100 µM | ACHN 33 µM | EKVX > 100 µM | OVCAR-8 46.8 µM | MDA-MB-435 15.8 µM | SN12C > 100 µM | HOP-62 17.5 µM | LOX IMVI > 100 µM | OVCAR-3 > 100 µM | NCI/ADR-RES 88.5 µM | DU-145 > 100 µM | A549 > 100 µM | SNB-19 32.5 µM | RPMI-8226 > 100 µM

CC(C)OC(=O)NNc1cccc(Cl)c1
inactive: OVCAR-5 > 100 µM | MDA-MB-231 > 100 µM | MOLT-4 > 100 µM | HL-60 33.3 µM | SK-OV-3 > 100 µM | SF-539 > 100 µM | UACC-62 38.4 µM | ACHN > 100 µM | EKVX > 100 µM | OVCAR-8 > 100 µM | MDA-MB-435 > 100 µM | SN12C > 100 µM | HOP-62 > 100 µM | LOX IMVI 65.8 µM | OVCAR-3 > 100 µM | NCI/ADR-RES > 100 µM | DU-145 > 100 µM | A549 > 100 µM | SNB-19 > 100 µM | RPMI-8226 66.1 µM

CS(=O)(=O)OC1CCN(C2(c3cccc(O)c3)CCCCC2)CC1
inactive: OVCAR-5 > 100 µM | MDA-MB-231 73.5 µM | MOLT-4 27.8 µM | HL-60 16.5 µM | SK-OV-3 37 µM | SF-539 27.4 µM | UACC-62 88.5 µM | ACHN > 100 µM | EKVX 92.7 µM | OVCAR-8 57.7 µM | MDA-MB-435 29.2 µM | SN12C 32.9 µM | HOP-62 36.1 µM | LOX IMVI 21.8 µM | OVCAR-3 > 100 µM | NCI/ADR-RES 48.1 µM | DU-145 82.6 µM | A549 > 100 µM | SNB-19 > 100 µM | RPMI-8226 20.7 µM

Nc1c(S(=O)(=O)O)cc(Nc2cccc(S(=O)(=O)/C=C/S(=O)(=O)O)c2)c2c1C(=O)c1ccccc1C2=O
inactive: OVCAR-5 > 100 µM | MDA-MB-231 > 100 µM | MOLT-4 > 100 µM | HL-60 > 100 µM | SK-OV-3 > 100 µM | SF-539 > 100 µM | UACC-62 > 100 µM | ACHN > 100 µM | EKVX > 100 µM | OVCAR-8 > 100 µM | MDA-MB-435 > 100 µM | SN12C > 100 µM | HOP-62 > 100 µM | LOX IMVI > 100 µM | OVCAR-3 > 100 µM | NCI/ADR-RES > 100 µM | DU-145 > 100 µM | A549 > 100 µM | SNB-19 > 100 µM | RPMI-8226 > 100 µM

O=C(O)C/C(=C\c1ccccc1)C(=O)O
inactive: OVCAR-5 > 100 µM | MDA-MB-231 > 100 µM | MOLT-4 > 100 µM | HL-60 > 100 µM | SK-OV-3 > 100 µM | SF-539 > 100 µM | UACC-62 > 100 µM | ACHN > 100 µM | EKVX > 100 µM | OVCAR-8 > 100 µM | MDA-MB-435 > 100 µM | SN12C > 100 µM | HOP-62 > 100 µM | LOX IMVI > 100 µM | OVCAR-3 > 100 µM | NCI/ADR-RES > 100 µM | DU-145 > 100 µM | A549 > 100 µM | SNB-19 > 100 µM | RPMI-8226 > 100 µM
